Values of other authors, collected in patent US8222294B2, “Combinations of an anti emetic agent and an enkephalinase inhibitor” (Bioproject, priority 2004, dated 2012).

System: cholera toxins
Settings: cited from earlier work

**Q.** With `CC(=O)SC[C@H](Cc1ccccc1)C(=O)NCC(=O)OCc1ccccc1` [dexecadotril] as the molecule, how does the antisecretory activity read?
**A.** active

**Q.** With `Cc1nccn1CC1CCc2c(c3ccccc3n2C)C1=O` (stereo not drawn) [ondansetron] as the molecule, how does the antisecretory activity read?
**A.** not

**Q.** Which antisecretory activity does the source give for `CC(=O)SCC(Cc1ccccc1)C(=O)NCC(=O)OCc1ccccc1` (stereo not drawn) [racecadotril] here?
**A.** active
